Legend:
[1] = target: human vasopressin V2 receptor (Homo sapiens, UniProt P30518); experiment: Human vasopressin V2 receptor binding assay on 1321N1 cell line; details: 1321N1 cell line; read-out: Ki on hV2 1321N1 cell line
Description: Human Vasopressin V2 Receptor Binding Assay Cells and Radioligand
To determine the final affinity value, the results of at least two independent experiments were taken into account.
Non-specific binding values were determined in the presence of an unlabeled 1.2×10^−6 M (Arg^8)-vasopressin. Samples were incubated in a total volume of 0.55 ml for 90 minutes at 27° C. Membrane-bound and free ligands were separated by filtration through a 0.5% polyethyleneimine-impregnated UniFilter® GF/B™. After drying the filter plates, 40 μl Microscint-20 (Packard) scintillation cocktail was added to the samples. Finally, radioactivity was measured using MicroBeta^2 Microplate Counter (Perkin Elmer).
The radioligand displacement ability of a substance is determined in at least two independent experiments. Specific radioligand binding can be defined as the difference between total and non-specific binding in the presence of a saturation amount of the unlabeled ligand or different concentrations of the substance to be tested. The results are given as a percentage of inhibition of the specific binding achieved in the presence of the substance to be tested.
During fitting, the asymptotes are not fixed. The Ki values (inhibition constant) are given with Cheng-Prusoff equation Ki=IC50/[1+(L/KD)] wherein [L] is the radioligand concentration used in the experiment and [KD] is the affinity of the radioactively labelled ligand for the given receptor. The KD is determined beforehand using the Scatchard curve.

[2] = target: T1, human vasopressin V1a receptor (Homo sapiens, UniProt P37288); experiment: Functional assay on human vasopressin V1a receptor expressing cell line (intracellular Ca2+ fluorescence); assay type: cell-based; details: 1321N1 cells, (Arg8)-vasopressin at EC80; read-out: IC50 (nM) on hV1a cell line
T1 sequence (P37288 whole entry): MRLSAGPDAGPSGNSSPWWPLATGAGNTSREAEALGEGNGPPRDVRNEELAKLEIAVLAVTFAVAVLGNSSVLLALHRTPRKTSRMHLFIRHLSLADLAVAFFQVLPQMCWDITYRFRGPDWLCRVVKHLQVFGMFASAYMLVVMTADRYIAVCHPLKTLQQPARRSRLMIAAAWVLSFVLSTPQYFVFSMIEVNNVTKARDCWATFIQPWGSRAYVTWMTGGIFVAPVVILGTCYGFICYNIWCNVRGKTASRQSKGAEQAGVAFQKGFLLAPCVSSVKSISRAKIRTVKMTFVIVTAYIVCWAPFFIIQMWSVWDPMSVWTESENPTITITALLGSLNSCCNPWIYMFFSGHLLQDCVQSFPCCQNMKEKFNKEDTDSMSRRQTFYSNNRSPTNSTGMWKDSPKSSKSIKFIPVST

[3] = target: T1, human vasopressin V1a receptor; experiment: Human vasopressin V1a receptor binding assay; details: 1321N1 cell membranes, [3H]vasopressin; read-out: Ki (nM) on hV1a cell line
Procedure, shortened: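 Ki values come from IC50 via Cheng-Prusoff (KD from prior Scatchard), averaged over at least two independent runs. Human V1a membranes were incubated with radioligand 60 minutes at 27° C., bound ligand collected by filtration; (Arg^8)-vasopressin at 1.2×10^−6 M defined non-specific binding.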

Chain of human vasopressin V2 receptor (P30518 whole entry): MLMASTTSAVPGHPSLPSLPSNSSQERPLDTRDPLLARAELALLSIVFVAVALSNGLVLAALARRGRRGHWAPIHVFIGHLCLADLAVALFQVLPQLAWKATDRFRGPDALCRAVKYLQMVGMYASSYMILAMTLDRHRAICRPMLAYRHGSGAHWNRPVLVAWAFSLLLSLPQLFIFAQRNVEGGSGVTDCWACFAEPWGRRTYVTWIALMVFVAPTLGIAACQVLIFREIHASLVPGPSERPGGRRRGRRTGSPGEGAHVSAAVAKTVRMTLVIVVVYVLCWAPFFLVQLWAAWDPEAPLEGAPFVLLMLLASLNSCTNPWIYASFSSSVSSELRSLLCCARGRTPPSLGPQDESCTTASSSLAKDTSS

What does the source list for `N[C@@H]1Cc2cc(Cl)ccc2-n2c(nnc2[C@H]2CC[C@H](Oc3ccccn3)CC2)C1` [Example 8, (5R)-8-chloro-1-[trans-4-(pyridin-2-yloxy)cyclohexyl]-5,6-dihydro-4H-[1,2,4]triazolo[4,3-a][1]benzazepine-5-amine]?
Ki [1]: 3050 nM; IC50 [2]: 6.8 nM; Ki [3]: 1.3 nM

What does the source list for `CC(=O)NC1Cc2cc(Cl)ccc2-n2c(nnc2[C@H]2CC[C@H](Oc3ccccn3)CC2)C1` (stereo partly drawn) [Example 9, N-{8-chloro-1-[trans-4-(pyridin-2-yloxy)cyclohexyl]-5,6-dihydro-4H-[1,2,4]triazolo[4,3-a][1]benzazepin-5-yl}acetamide]?
Ki [1]: 1190 nM; IC50 [2]: 3 nM; Ki [3]: 0.8 nM

With `O=C1Cc2cc(Cl)ccc2-n2c(nnc2[C@H]2CC[C@H](Oc3ccccn3)CC2)C1` [Example 54, 8-chloro-1-[trans-4-(pyrin-2-yloxy)cyclohexyl]-4H-[1,2,4]triazolo[4,3-a][1]benzazepin-5(6H)-one] as the compound, how does the Ki [1] read?
The Ki was 662 nM.

What about the IC50 [2] of the same compound?
Its IC50 is 1.2 nM.

And the Ki [3]?
Its Ki is 0.6 nM.

With `OC1Cc2cc(Cl)ccc2-n2c(nnc2[C@H]2CC[C@H](Oc3ccccn3)CC2)C1` (stereo partly drawn) [Example 55, 8-chloro-1-[trans-4-(pyridin-2-yloxy)cyclohexyl]-5,6-dihydro-4H-[1,2,4]triazolo[4,3-a][1]benzazepin-5-ol] as the compound, how does the Ki [1] read?
Its Ki is 469 nM.

What about the IC50 [2] of the same compound?
Its IC50 is 1.1 nM.

And the Ki [3]?
The Ki was 0.3 nM.

What does the source list for `O[C@@H]1Cc2cc(Cl)ccc2-n2c(nnc2[C@H]2CC[C@H](Oc3ccccn3)CC2)C1` [Example 57, (5R)-8-chloro-1-[trans-4-(pyridin-2-yloxy)cyclohexyl]-5,6-dihydro-4H-[1,2,4]triazolo[4,3-a][1]benzazepin-5-ol]?
Ki [1]: 446 nM; IC50 [2]: 1.8 nM; Ki [3]: 0.3 nM

For `Brc1ccc2c(c1)CC1(Cc3nnc([C@H]4CC[C@H](Oc5ccccn5)CC4)n3-2)OCCO1` [Example 62, 8′-bromo-1′-[trans-4-(pyridin-2-yloxy)cyclohexyl]-4′H,6′H-spiro[1,3-dioxolane-2,5′ [1,2,4]triazolo[4,3-a][1]benzazepine]], which Ki [1] is on record?
The Ki was 53 nM.

What about the IC50 [2] of the same compound?
The IC50 was 1.1 nM.

What about the Ki [3] of the same compound?
The Ki was 0.2 nM.

For `c1ccc(O[C@H]2CC[C@H](c3nnc4n3-c3ccccc3CC3(C4)OCCO3)CC2)nc1` [Example 63, 1′-[trans-4-(pyridin-2-yloxy)cyclohexyl]-4′H,6′H-spiro[1,3-dioxolane-2,5′-[1,2,4]triazolo[4,3-a][1]benzazepine]], which Ki [1] is on record?
Its Ki is 575 nM.

What about the IC50 [2] of the same compound?
The IC50 was 1.4 nM.

And the Ki [3]?
Its Ki is 0.3 nM.
